Legend:
[1] = system: c-Myc expression in K562 chronic myelogenous leukemia cells; assay: c-Myc expression in K562 cells; assay type: cell-based, human
[2] = system: BD1 and BD2 within a BET protein; details: cited from earlier work

Row | SMILES | effect on c-Myc expression [1] | affinity of bivalent engagement of BD1 and BD2 [2]
1 | Cc1sc2c(c1C)C(c1ccc(Cl)cc1)=N[C@@H](CC(=O)OC(C)(C)C)c1nnc(C)n1-2 [JQ1] | attenuated c-Myc expression | –
2 | Cc1sc2c(c1C)C(c1ccc(Cl)cc1)=N[C@@H](CC(=O)NCCOCCOCCOCCOCCOCCOCCOCCNC(=O)C[C@@H]1N=C(c3ccc(Cl)cc3)c3c(sc(C)c3C)-n3c(C)nnc31)c1nnc(C)n1-2 [MT1] | – | subnanomolar
